Source: patent US20240239794A1, “PKC-Theta Modulators” (Exscientia AI Limited, priority 2021, published 2024)
Where a name gives a salt, the structure may show the parent alone. Read-outs that look alike come from different tables or passages of the source.

Assays:
[1] = target: Recombinant human PKC-theta (His-tagged 362-706) (Homo sapiens (Human), UniProt Q04759); assay: PKC-theta inhibition assay (HTRF KinEASE kit); type: biochemical; conditions: ATP 6.5 μM
Procedure, shortened: (§1)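 HTRF KinEASE kinase assay, buffer supplemented with 10 mM MgCl2, 1 mM DTT, 0.1% Tween 20; enzyme at 10 ng/ml preincubated 30 min on ice with compound. PKC-theta: 525 nM STK substrate, 6.5 μM ATP, 30 min at 25° C; PKC-delta: 243 nM substrate, 5.7 μM ATP, 20 min. IC50 from 4-parameter fit of 10-dose series.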

[2] = target: Recombinant human PKC-delta (His-tagged 345-676) (Homo sapiens (Human), UniProt Q05655); assay: PKC-delta inhibition assay (HTRF KinEASE kit), PKC-theta/PKC-delta selectivity; type: biochemical; conditions: ratio; for PKC-theta/PKC-delta selectivity: PKC-theta over PKC-delta, HTRF assays; for PKC-theta/PKC-delta selectivity (binned): binned A to G
Procedure, shortened: as §1

[3] = tested on: IL-2 secretion by human effector memory T cells (TEM); assay: Effector memory T cells IL-2 release assay; type: cell-based; conditions: T-cell, 24 h
Procedure, shortened: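 Human CD4+ effector memory T cells (negatively sorted from donor PBMC), 5,000 per well, stimulated with CD3/CD28 beads and 10 semi-log compound doses for 24 h at 37° C, 0.1% DMSO. Supernatant IL-2 measured by HTRF; IC50 from 4-parameter logistic fit; viability checked by flow cytometry.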

[4] = binned A to H, read-out: PKC-theta HTRF pIC50 (binned) (converted)
[5] = read-out: PKC-theta HTRF pIC50 (converted)
[6] = human CD4+ TEM cells, CD3/CD28 bead stimulation, binned A to G, read-out: PKC-theta IL2 pIC50 (binned) (converted)
[7] = human CD4+ TEM cells, CD3/CD28 bead stimulation, read-out: PKC-theta IL2 pIC50 (converted)
[8] = Homo sapiens, read-out: PKC-theta IL2 pIC50 (binned) (converted)
[9] = Homo sapiens, read-out: PKC-theta IL2 pIC50 (converted)

Chain of Recombinant human PKC-theta (His-tagged 362-706) (Q04759 362-706): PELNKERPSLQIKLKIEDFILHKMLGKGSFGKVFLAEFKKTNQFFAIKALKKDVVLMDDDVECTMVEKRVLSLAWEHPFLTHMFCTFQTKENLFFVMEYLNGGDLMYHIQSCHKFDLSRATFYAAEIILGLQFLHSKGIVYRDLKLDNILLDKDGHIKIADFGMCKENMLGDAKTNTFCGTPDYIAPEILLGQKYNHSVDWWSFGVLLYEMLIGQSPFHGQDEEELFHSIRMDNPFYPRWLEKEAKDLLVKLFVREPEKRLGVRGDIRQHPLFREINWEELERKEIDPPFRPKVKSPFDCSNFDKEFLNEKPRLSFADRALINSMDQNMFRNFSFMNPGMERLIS
Chain of Recombinant human PKC-delta (His-tagged 345-676) (Q05655 345-676): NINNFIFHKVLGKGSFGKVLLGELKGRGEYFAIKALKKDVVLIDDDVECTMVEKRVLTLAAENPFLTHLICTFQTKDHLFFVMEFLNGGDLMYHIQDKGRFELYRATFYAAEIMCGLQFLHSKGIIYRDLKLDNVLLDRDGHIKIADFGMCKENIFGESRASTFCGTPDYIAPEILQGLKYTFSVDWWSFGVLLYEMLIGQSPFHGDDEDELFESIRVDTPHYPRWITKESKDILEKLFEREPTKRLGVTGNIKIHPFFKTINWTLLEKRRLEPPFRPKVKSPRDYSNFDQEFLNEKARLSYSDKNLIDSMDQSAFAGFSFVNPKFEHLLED

SMILES | IC50 [1, 4] [nM] | IC50 [1, 5] [nM] | PKC-theta/PKC-delta selectivity [2] | PKC-theta/PKC-delta selectivity (binned) [2] | IC50 [3, 6] [nM] | IC50 [3, 7] [nM] | PKC-theta HTRF pIC50 [1] | IC50 [3, 8] [nM] | IC50 [3, 9] [nM]
CC[C@@]1(C)C(=O)Nc2nccc(-c3nn([C@H]4CCNC[C@H]4F)c4ccc(F)cc34)c21 (single isomer, unassigned) [Example 99] | 31.6 to 100 | 100 | 105 | A (A means a ratio of between 50 and 120) | 316 to 1000 | 398 |  |  | 
CC1(O)C(=O)Nc2nccc(-c3nn(C4CCNCC4)c4ccccc34)c21 (stereo not drawn) [Example 26] | 3.16 to 10 |  | 11 | D (D means a ratio of between 10 and 20) | 31.6 to 100 | 79.4 | 8.5 |  | 
CO[C@]1(C)C(=O)Nc2nccc(-c3nn([C@@H]4CCNC[C@@H]4F)c4ccccc34)c21 (single isomer, unassigned) [Example 90] | ≤ 1 | 1 | 11 | D (D means a ratio of between 10 and 20) | 10 to 31.6 | 15.8 |  |  | 
C[C@@]1(O)C(=O)Nc2nccc(-c3nn(C4CCNCC4)c4ccccc34)c21 (single isomer, unassigned) [Example 27] | 31.6 to 100 | 50.1 | 5 | E (E means a ratio of between 5 and 10) | > 1000 | 1580 |  |  | 
CC1(C)C(=O)Nc2nccc(-c3nn(C4CCNCC4)c4cc(F)ccc34)c21 [Example 112] | 1 to 3.16 |  | 22 | C (C means a ratio of between 20 and 30) | 31.6 to 100 | 63.1 | 8.5 |  | 
CC1(C)C(=O)Nc2nccc(-c3cn(C4CCNCC4)c4ccccc34)c21 [Example 7, 3,3-dimethyl-4-[1-(4-piperidyl)indol-3-yl]-1H-pyrrolo[2,3-b]pyridin-2-one Dihydrochloride] | 31.6 to 100 |  | 6 | E (E means a ratio of between 5 and 10) |  |  | 7.4 | 316 to 1000 | 501
CC1(C)C(=O)Nc2nccc(-c3nn(C[C@H]4COCCN4)c4ccccc34)c21 [Example 86] | 10 to 31.6 |  | 26 | C (C means a ratio of between 20 and 30) | > 1000 | 1260 | 7.5 |  | 
Cc1nn(C2CCNCC2)cc1-c1ccnc2[nH]c(=O)[nH]c12 [Example 2] | > 1000 |  | 0.2 | G (G means a ratio of between 0 and 1) | > 1000 | 10000 | 5.1 |  | 
CC1(Cn2nc(-c3ccnc4c3C(C)(C)C(=O)N4)c3ccccc32)COCCN1 (stereo not drawn) [Example 54, 3,3-dimethyl-4-[1-[(3-methylmorpholin-3-yl)methyl]indazol-3-yl]-1H-pyrrolo[2,3-b]pyridin-2-one] | 1 to 3.16 |  | 22 | C (C means a ratio of between 20 and 30) | 31.6 to 100 | 79.4 | 8.6 |  | 
CC[C@]1(O)C(=O)Nc2nccc(-c3nn([C@@H]4CCNC[C@@H]4F)c4ccccc34)c21 (single isomer, unassigned) [Example 85] | 31.6 to 100 | 50.1 | 10 | E (E means a ratio of between 5 and 10) | > 1000 | 1260 |  |  | 
CO[C@@]1(C)C(=O)Nc2nccc(-c3nn(C4(CC#N)CCC4)c4ccccc34)c21 (single isomer, unassigned) [Example 80] | ≤ 1 | 0.794 | 9 | E (E means a ratio of between 5 and 10) | 10 to 31.6 | 20 |  |  | 
CC[C@@]1(O)C(=O)Nc2nccc(-c3nn(C4(CC#N)CCC4)c4ccccc34)c21 (single isomer, unassigned) [Example 68] | ≤ 1 | 0.251 | 12 | D (D means a ratio of between 10 and 20) | 10 to 31.6 | 10 |  |  | 
O=c1[nH]c2nccc(-c3ccn(C4CCNCC4)c3)c2[nH]1 [Example 3, 7-[1-(4-piperidyl)pyrrol-3-yl]-1,3-dihydroimidazo[4,5-b]pyridin-2-one; Dihydrochloride] | 100 to 316 |  | 1 | F (F means a ratio of between 1 and 5) |  |  | 6.7 | > 1000 | 6310
CC1(C)C(=O)Nc2nccc(-c3nn([C@@H]4CCNC4)c4ccccc34)c21 [Example 15] | 1 to 3.16 |  | 14 | D (D means a ratio of between 10 and 20) | 31.6 to 100 | 39.8 | 8.6 |  | 
CC1(C)C(=O)Nc2nccc(-c3cn(C4(CC#N)CCC4)c4ccccc34)c21 [Example 21, 2-[1-[3-(3,3-dimethyl-2-oxo-1H-pyrrolo[2,3-b]pyridin-4-yl)indol-1-yl]cyclobutyl]acetonitrile] | 31.6 to 100 |  | 9 | E (E means a ratio of between 5 and 10) | > 1000 | 1000 | 7.3 |  | 
CC[C@]1(O)C(=O)Nc2nccc(-c3nn(C4(CC#N)CCC4)c4ccccc34)c21 (single isomer, unassigned) [Example 69] | 31.6 to 100 | 100 | 9 | E (E means a ratio of between 5 and 10) | > 1000 | 1260 |  |  | 
